Assay results taken from ChEMBL document CHEMBL1141014, “Design and synthesis of a bis(cycloisodityrosine) analogue of RA-VII, an antitumor bicyclic hexapeptide” (Bioorg Med Chem Lett, 2008).
≈ marks a conversion by molar mass, not a printed value.

Test system: P388
Assay: Cytotoxicity against mouse P388 cells
Format: functional, cell-based

SMILES: COc1ccc2cc1Oc1ccc(cc1)C[C@@H]1NC(=O)[C@@H](C)NC(=O)[C@@H]3Cc4ccc(OC)c(c4)Oc4ccc(cc4)C[C@@H](C(=O)N3C)N(C)C(=O)[C@H](C)NC(=O)[C@H](C2)NC1=O
- IC50: 7.5 µg/mL (≈ 8.86 µM)

SMILES: COc1ccc(C[C@H]2C(=O)N[C@@H](C)C(=O)N(C)[C@H]3Cc4ccc(cc4)Oc4cc(ccc4OC)C[C@@H](C(=O)N[C@H](C)C(=O)N[C@@H](C)C(=O)N2C)N(C)C3=O)cc1
- IC50: 0.0015 µg/mL (≈ 0.00195 µM)
